Results reported in US12043601B2, “N-substituted-1H-1,2,4-triazole-3-carboxamides, analogues thereof, and methods of treatment using same” (THE REGENTS OF THE UNIVERSITY OF COLORADO, priority 2018, dated 2024).
Values after ≈ are worked out from the molar mass of the structure shown.

Columns and labels:
DksA = DksA (Salmonella typhimurium, UniProt P0A1G5); assay: DksA-dependent livJ in vitro transcription; format: biochemical; details: livJ promoter; for IVT: concentration showing activity
Protocol: To measure the potency of a compound in inhibition of DksA biological function, rpsMtranscripts in vitro was determined by non-radioactive in vitro transcription reactions with qPCR analysis with divergent compounds. Briefly, 5 nM pTIM-rpsMplasmid was mixed with […] of compounds in 10 μl reaction buffer (40 mM HEPES [pH 7.4], 2 mM MgCl2, 60 mM potassium glutamate, 0.05% NP-40, 200 μM ATP, 200 μM GTP, 200 μM CTP, 200 μM UTP, and 5 nM E. coli RNA polymerase holoenzyme (NEB, Ipswich, MA) with 5 μM DksA. The in vitro transcription was carried out at 37° C. for 10 min, and then terminated at 70° C. for 10 min. To remove template DNA after treated with DNaseI, DNA-free DNA Removal kit (ThermoFisher) was used according to manufacturer's direction. The resulting materials were used as templates to generate cDNA with 100 U MMLV reverse transcriptase (Promega), 0.45 μM gene specific primer, and 20 U RNase inhibitor (Promega). The amount of cDNA synthesized for 1 h at 42° C. was quantified by real-time PCR (qRT-PCR). The copy number of specific transcripts was calculated to the standard curve generated with known gene copy concentrations. The IC50 is the concentration at which the curve passes through the 50% inhibition level. Standard deviation was calculated from 3 independent experiments.
The compounds were initially tested at 0.1 μM and 1 μM using as a target the promoter of the livJ gene that encodes a transporter of branch-chain amino acids (Table 4).

Compound solubility = format: physicochemical; details: for Compound Solubility, 1 μM: solvent at 1 μM; for Compound Solubility, 10 μM: solvent at 10 μM; for Compound Solubility, 100 μM: solvent at 100 μM; for Compound Solubility, 1 mM: solvent at 1 mM; for Compound Solubility, 10 mM: solvent at 10 mM; for Compound Solubility, 16 mg/ml: solvent at 16 mg/ml
Salmonella strain 14028s = assay: Minimum inhibitory concentration in EG minimal media; format: cell-based, Salmonella Typhimurium; details: 18 h; for Growth in EG at concentration tested 1 μg/ml / Growth in EG at concentration tested 2 μg/ml / Growth in EG at concentration tested 4 μg/ml / Growth in EG at concentration tested 8 μg/ml / Growth in EG at concentration tested 16 μg/ml / Growth in EG at concentration tested 32 μg/ml: EG minimal media, 37° C.; for MIC: Salmonella, 14028S
Protocol: DksA controls transcription of metabolic and virulence genes, allowing bacteria to both grow in minimum media and cause disease. Inhibition of bacterial growth in EG minimum media was used as an easy and reliable proxy of the DksA-dependent regulation of metabolism.
In a non-limiting example, wild-type Salmonella strain 14028s was grown overnight (18.5 h), and then diluted in EG minimal media to a density of about 10^5 CFU/mL. […] Each test tube was incubated at 37° C. with shaking for 18 h and bacterial growth was evaluated. The MIC value was determined as the lowest concentration of compound that inhibited growth.

DksA, sequence (P0A1G5 whole entry): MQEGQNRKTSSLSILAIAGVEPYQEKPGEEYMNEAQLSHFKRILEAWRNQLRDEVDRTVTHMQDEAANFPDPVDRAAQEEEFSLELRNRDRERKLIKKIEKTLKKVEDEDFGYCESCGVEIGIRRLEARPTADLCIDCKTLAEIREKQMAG

SMILES | In vitro transcription assay result, 0.1 μM (DksA) | In vitro transcription assay result, 1 μM (DksA) | Compound Solubility, 1 μM (Compound solubility) | Compound Solubility, 10 μM (Compound solubility) | Compound Solubility, 100 μM (Compound solubility) | Compound Solubility, 1 mM (Compound solubility) | Compound Solubility, 10 mM (Compound solubility) | Compound Solubility, 16 mg/ml (Compound solubility) | Growth in EG at concentration tested 1 μg/ml (Salmonella strain 14028s) | Growth in EG at concentration tested 2 μg/ml (Salmonella strain 14028s) | MIC (Salmonella strain 14028s) | Growth in EG at concentration tested 4 μg/ml (Salmonella strain 14028s) | IVT (DksA) | Growth in EG at concentration tested 8 μg/ml (Salmonella strain 14028s) | Growth in EG at concentration tested 16 μg/ml (Salmonella strain 14028s) | Growth in EG at concentration tested 32 μg/ml (Salmonella strain 14028s)
O=C(NCc1ccc2c(c1)OCO2)c1nc[nH]n1 [Compound 6, N-(benzo[d][1,3]dioxol-5-ylmethyl)-1H-1,2,4-triazole-3-carboxamide] | no change | no change | water | water | water | water | water | DMSO | + | + | 8 µg/mL (≈ 32.5 µM) |  |  |  |  | 
COc1ccc(CNC(=O)c2nc[nH]n2)cc1 [Compound 4, N-(4-methoxybenzyl)-1H-1,2,4-triazole-3-carboxamide] | no change | no change | water | water | water | water | water | DMSO | + | + | 8 µg/mL (≈ 34.4 µM) | + |  |  |  | 
O=C(NCc1ccc(OC(F)(F)F)cc1)c1nc[nH]n1 [Compound 8, N-(4-(trifluoromethoxy)benzyl)-1H-1,2,4-triazole-3-carboxamide] | no induction | no induction | water | water | water | water | DMSO | DMSO | + | + |  | + | 0.1 µM | + | + | +
O=C(NCc1cccc(OC(F)(F)F)c1)c1nc[nH]n1 [Compound 9, N-(3-(trifluoromethoxy)benzyl)-1H-1,2,4-triazole-3-carboxamide] | no induction | Repression | water | water | water | water | DMSO | DMSO | + | + |  | + | 0.1 µM | + | + | +
CC(C)(C)c1ccc(NC(=O)c2nc[nH]n2)cc1 [Compound 13, N-(4-(tert-butyl)phenyl)-1H-1,2,4-triazole-3-carboxamide] | no induction | no induction | water | water | water | water | DMSO | DMSO | + | + |  | + | 0.1 µM | + | + | +
COc1ccc(CNC(=O)c2nc[nH]n2)cc1C(F)(F)F [Compound 10, N-(4-methoxy-3-(trifluoromethyl)benzyl)-1H-1,2,4-triazole-3-carboxamide] | no change | no induction | water | water | water | water | water | DMSO | + | + |  | + | 1 µM | + | + | +
COc1ccc(CNC(=O)c2nc[nH]n2)cc1OC [Compound 2, N-(3,4-dimethoxybenzyl)-1H-1,2,4-triazole-3-carboxamide] | no change | no change | water | water | water | water | water | DMSO | + | + |  | + |  | + | + | +
C[C@H](NC(=O)c1nc[nH]n1)c1ccccc1 [Compound 18, (S)-N-(1-phenylethyl)-1H-1,2,4-triazole-3-carboxamide] | no induction | no induction | water | water | water | water | water | DMSO | + | + |  | + | 0.1 µM | + | + | +
COc1cccc(CNC(=O)c2nc[nH]n2)c1OC [Compound 3, N-(2,3-dimethoxybenzyl)-1H-1,2,4-triazole-3-carboxamide] | no induction | no induction | water | water | water | water | water | DMSO | + | + | 32 µg/mL (≈ 122 µM) | + | 0.1 µM | + |  | 
